Test results reported in US20210261621A1, “Preparation of Dilipid Polymixins and Use Thereof as Antimicrobial Adjuvants” (priority 2018, published 2021).
Where “and” joins values, the source holds several entries; their conditions need not be identical. Equal entries are not always repeated. Where two headings read alike, the source gives them in different places. Positions of bridges follow the written chain, without caps; N, C: chain ends. Non-standard residues stand in square brackets, D forms with d. Residues, ends and D or L forms follow the SMILES beside them. *: point of attachment. Octanoyl = CCCCCCCC(=O)*; Dab = NCC[C@H](N)C(=O)O

Legend:
P. aeruginosa PAO1 = system: P. aeruginosa PAO1; design: MICDrug / MICDrug in combo / MIC of adjuvant in combo: unit not given beside the values
P. aeruginosa = assay: MIC comparison over the P. aeruginosa strains tested; type: cell-based, Pseudomonas aeruginosa; conditions: all eleven P. aeruginosa strains tested (Table 2)
Excerpt: Specifically, addition of another lipid component to the amine side-chain of Dab1 reduced polymyxin's activity against Escherichia coli, P. aeruginosa, Stenotrophomonas maltophilia, A. baumannii, Klebsiella pneumoniae and Enterobacter cloacae. However, the reduction of activity against P. aeruginosa was not as drastic relative to other Gram-negative pathogens. […] We believe that this selectivity for P. aeruginosa is due to differences in exopolysaccharides and lipopolysaccharides between Gram-negative bacteria. This finding may imply the possibility of developing antipseudomonal polymyxins for pathogen-specific therapy.
The in vitro antibacterial activity of the compounds studied were assessed by broth microdilution susceptibility testing following CLSI guidelines. Bacterial cultures were grown overnight prior to the assay. The overnight grown cultures were diluted in saline to 0.5 McFarland turbidity, followed by 1:50 dilution in Mueller-Hinton broth (MHB) for inoculation to a final concentration of approximately 5×10^5 colony forming units/mL. Testing was performed on 96-well plates where the tested compounds were 2-fold serially diluted in MHB and incubated with equal volumes of bacterial inoculum at 37° C. for 18 h. […] Wells containing MHB with or without bacterial cells were used as positive or negative control, respectively.

CCCCCCCC(=O)NCC[C@H](NC(=O)CCCCCCC)C(=O)N[C@H](C(=O)N[C@@H](CCN)C(=O)N[C@H]1CCNC(=O)[C@H]([C@@H](C)O)NC(=O)[C@H](CCN)NC(=O)[C@H](CCN)NC(=O)[C@H](CC(C)C)NC(=O)[C@@H](Cc2ccccc2)NC(=O)[C@H](CCN)NC1=O)[C@@H](C)O [Compound 2, Dioctanoic Acid (Di-C8) Polymyxin] (Octanoyl-[Dab](Octanoyl)T[Dab][Dab][Dab][dF]L[Dab][Dab]T; lactam 4-C)
MIC of adjuvant alone (MIC1, MIC2, MIC3, MIC4, MIC5, MICPMBN) (P. aeruginosa PAO1; adjuvant alone, one value per checkerboard, in µg/mL): 8 and 4
Interpretation (P. aeruginosa PAO1; combination with Aztreonam): Additive (An FIC index of ≤0.5, 0.5<x≤4, or >4 denotes for synergistic, additive or antagonistic interaction, respectively)
Interpretation (P. aeruginosa PAO1; combination with Ceftazidime): Additive (An FIC index of ≤0.5, 0.5<x≤4, or >4 denotes for synergistic, additive or antagonistic interaction, respectively)
Interpretation (P. aeruginosa PAO1; combination with Chloramphenicol): Synergy (An FIC index of ≤0.5, 0.5<x≤4, or >4 denotes for synergistic, additive or antagonistic interaction, respectively)
Interpretation (P. aeruginosa PAO1; combination with Ciprofloxacin): Additive (An FIC index of ≤0.5, 0.5<x≤4, or >4 denotes for synergistic, additive or antagonistic interaction, respectively)
Interpretation (P. aeruginosa PAO1; combination with Clindamycin): Synergy (An FIC index of ≤0.5, 0.5<x≤4, or >4 denotes for synergistic, additive or antagonistic interaction, respectively)
Interpretation (P. aeruginosa PAO1; combination with Doripenem): Additive (An FIC index of ≤0.5, 0.5<x≤4, or >4 denotes for synergistic, additive or antagonistic interaction, respectively)
Interpretation (P. aeruginosa PAO1; combination with Doxycycline): Additive (An FIC index of ≤0.5, 0.5<x≤4, or >4 denotes for synergistic, additive or antagonistic interaction, respectively)
Interpretation (P. aeruginosa PAO1; combination with Fosfomycin): Additive (An FIC index of ≤0.5, 0.5<x≤4, or >4 denotes for synergistic, additive or antagonistic interaction, respectively)
Interpretation (P. aeruginosa PAO1; combination with Gentamicin): Additive (An FIC index of ≤0.5, 0.5<x≤4, or >4 denotes for synergistic, additive or antagonistic interaction, respectively)
Interpretation (P. aeruginosa PAO1; combination with Linezolid): Additive (An FIC index of ≤0.5, 0.5<x≤4, or >4 denotes for synergistic, additive or antagonistic interaction, respectively)
Interpretation (P. aeruginosa PAO1; combination with Meropenem): Additive (An FIC index of ≤0.5, 0.5<x≤4, or >4 denotes for synergistic, additive or antagonistic interaction, respectively)
Interpretation (P. aeruginosa PAO1; combination with Minocycline): Synergy (An FIC index of ≤0.5, 0.5<x≤4, or >4 denotes for synergistic, additive or antagonistic interaction, respectively)
Interpretation (P. aeruginosa PAO1; combination with Moxifloxacin): Additive (An FIC index of ≤0.5, 0.5<x≤4, or >4 denotes for synergistic, additive or antagonistic interaction, respectively)
Interpretation (P. aeruginosa PAO1; combination with Novobiocin): Synergy (An FIC index of ≤0.5, 0.5<x≤4, or >4 denotes for synergistic, additive or antagonistic interaction, respectively)
Interpretation (P. aeruginosa PAO1; combination with Piperacillin): Additive (An FIC index of ≤0.5, 0.5<x≤4, or >4 denotes for synergistic, additive or antagonistic interaction, respectively)
Interpretation (P. aeruginosa PAO1; combination with Pleuromutilin): Additive (An FIC index of ≤0.5, 0.5<x≤4, or >4 denotes for synergistic, additive or antagonistic interaction, respectively)
Interpretation (P. aeruginosa PAO1; combination with Rifampicin): Additive (An FIC index of ≤0.5, 0.5<x≤4, or >4 denotes for synergistic, additive or antagonistic interaction, respectively)
Interpretation (P. aeruginosa PAO1; combination with Streptomycin): Additive (An FIC index of ≤0.5, 0.5<x≤4, or >4 denotes for synergistic, additive or antagonistic interaction, respectively)
Interpretation (P. aeruginosa PAO1; combination with Tobramycin): Additive (An FIC index of ≤0.5, 0.5<x≤4, or >4 denotes for synergistic, additive or antagonistic interaction, respectively)
Interpretation (P. aeruginosa PAO1; combination with Trimethoprim): Additive (An FIC index of ≤0.5, 0.5<x≤4, or >4 denotes for synergistic, additive or antagonistic interaction, respectively)
Interpretation (P. aeruginosa PAO1; combination with Vancomycin): Additive (An FIC index of ≤0.5, 0.5<x≤4, or >4 denotes for synergistic, additive or antagonistic interaction, respectively)
MIC of adjuvant in combo (P. aeruginosa PAO1; in combination with Aztreonam): (4)
MIC of adjuvant in combo (P. aeruginosa PAO1; in combination with Ceftazidime): (2)
MIC of adjuvant in combo (P. aeruginosa PAO1; in combination with Chloramphenicol): (2)
MIC of adjuvant in combo (P. aeruginosa PAO1; in combination with Ciprofloxacin): (4)
MIC of adjuvant in combo (P. aeruginosa PAO1; in combination with Clindamycin): (2)
MIC of adjuvant in combo (P. aeruginosa PAO1; in combination with Doripenem): (4)
MIC of adjuvant in combo (P. aeruginosa PAO1; in combination with Doxycycline): (4)
MIC of adjuvant in combo (P. aeruginosa PAO1; in combination with Fosfomycin): (4)
MIC of adjuvant in combo (P. aeruginosa PAO1; in combination with Gentamicin): (0.125)
MIC of adjuvant in combo (P. aeruginosa PAO1; in combination with Linezolid): (4)
MIC of adjuvant in combo (P. aeruginosa PAO1; in combination with Meropenem): (4)
MIC of adjuvant in combo (P. aeruginosa PAO1; in combination with Minocycline): (2)
MIC of adjuvant in combo (P. aeruginosa PAO1; in combination with Moxifloxacin): (2)
MIC of adjuvant in combo (P. aeruginosa PAO1; in combination with Novobiocin): (2)
MIC of adjuvant in combo (P. aeruginosa PAO1; in combination with Piperacillin): (4)
MIC of adjuvant in combo (P. aeruginosa PAO1; in combination with Pleuromutilin): (2)
MIC of adjuvant in combo (P. aeruginosa PAO1; in combination with Rifampicin): (1)
MIC of adjuvant in combo (P. aeruginosa PAO1; in combination with Streptomycin): (4)
MIC of adjuvant in combo (P. aeruginosa PAO1; in combination with Tobramycin): (0.125)
MIC of adjuvant in combo (P. aeruginosa PAO1; in combination with Trimethoprim): (4)
MIC of adjuvant in combo (P. aeruginosa PAO1; in combination with Vancomycin): (4)
fold lower MIC than colistin (P. aeruginosa): 4-8 fold
